Test results reported in patent US20240391926A1, “SPIROINDOLINONE COMPOUNDS AS Kv1.3 POTASSIUM SHAKER CHANNEL BLOCKERS” (D.E. Shaw Research, LLC, priority 2021, published 2024).

Target: T1, Kv1.3 potassium channel (Homo sapiens, UniProt P22001)
T1 construct: expressed in transfected cells
Assay: Kv1.3 potassium channel blocker activity, automated whole-cell patch clamp (Patchliner) in CHO-K1 cells stably expressing Kv1.3
Type: cell-based
Details: 30 nM-100 μM
Procedure: This assay is used to evaluate the disclosed compounds' activities as Kv1.3 potassium channel blockers.
CHO-K1 cells stably expressing Kv1.3 were grown in DMEM containing 10% heat-inactivated FBS, 1 mM sodium pyruvate, 2 mM L-glutamine, and G418 (500 μg/ml). Cells were grown in culture flasks at 37° C. in a 5% CO2-humidified incubator.
The cells were bathed in an extracellular solution containing 140 mM NaCl, 4 mM KCl, 2 mM CaCl2), 1 mM MgCl2, 5 mM glucose, 10 mM HEPES; pH adjusted to 7.4 with NaOH; 295-305 mOsm. The internal solution contained 50 mM KCl, 10 mM NaCl, 60 mM KF, 20 mM EGTA, 10 mM HEPES; pH adjusted to 7.2 with KOH; 285 mOsm. All compounds were dissolved in DMSO at 30 mM. Compound stock solutions were freshly diluted with external solution to concentrations of 30 nM, 100 nM, 300 nM, 1 μM, 3 μM, 10 μM, 30 μM and 100 μM. The highest content of DMSO (0.3%) was present in 100 μM.
The currents were evoked by applying 100 ms depolarizing pulses from −90 mV (holding potential) to +40 mV were applied with 0.1 Hz frequency. Control (compound-free) and compound pulse trains for each compound concentration applied contained 20 pulses. 10-second breaks were used between pulse trains (see Table A below).
Whole-cell current recordings and compound application were enabled by means of an automated patch clamp platform Patchliner (Nanion Technologies GmbH). EPC 10 patch clamp amplifier (HEKA Elektronik Dr. Schulze GmbH) along with Patchmaster software (HEKA Elektronik Dr. Schulze GmbH) was used for data acquisition. Data were sampled at 10 kHz without filtering. Passive leak currents were subtracted online using a P/4 procedure (HEKA Elektronik Dr. Schulze GmbH). Increasing compound concentrations were applied consecutively to the same cell without washouts in between. Total compound incubation time before the next pulse train was not longer than 10 seconds. Peak current inhibition was observed during compound equilibration.
AUC and peak values were obtained with Patchmaster (HEKA Elektronik Dr. Schulze GmbH). To determine IC50, the last single pulse in the pulse train corresponding to a given compound concentration was used. Obtained AUC and peak values in the presence of compound were normalized to control values in the absence of compound. Using Origin (OridinLab), IC50 was derived from data fit to Hill equation: Icompound/Icontrol=(100−A)/(1+([compound]/IC50)nH)+A, where IC50 value is the concentration at which current inhibition is half-maximal, [compound] is the applied compound concentration, A is the fraction of current that is not blocked and nH is the Hill coefficient.

T1 sequence (P22001 whole entry): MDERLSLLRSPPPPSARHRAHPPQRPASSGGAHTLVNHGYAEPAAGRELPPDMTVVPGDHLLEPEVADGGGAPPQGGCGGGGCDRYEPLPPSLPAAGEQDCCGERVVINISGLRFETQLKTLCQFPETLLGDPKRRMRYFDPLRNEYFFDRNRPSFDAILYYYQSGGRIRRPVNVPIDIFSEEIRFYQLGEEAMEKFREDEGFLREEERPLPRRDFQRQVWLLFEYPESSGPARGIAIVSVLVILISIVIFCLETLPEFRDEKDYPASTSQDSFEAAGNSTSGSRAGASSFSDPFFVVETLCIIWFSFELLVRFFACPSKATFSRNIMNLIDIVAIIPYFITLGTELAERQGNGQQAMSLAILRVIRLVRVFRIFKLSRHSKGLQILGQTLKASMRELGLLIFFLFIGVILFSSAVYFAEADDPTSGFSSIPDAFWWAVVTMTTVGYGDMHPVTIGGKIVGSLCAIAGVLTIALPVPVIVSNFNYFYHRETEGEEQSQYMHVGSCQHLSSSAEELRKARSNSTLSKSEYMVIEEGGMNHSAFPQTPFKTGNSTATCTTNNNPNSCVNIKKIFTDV

Structure (SMILES)	IC50 [µM]
O=C([C@H]1[C@@H]2CN[C@H]1C2)N1CC[C@]2(C1)C(=O)Nc1cc(Cl)c(Cl)cc12 (single isomer, unassigned; isomer 1) [Compound 57]	< 3
O=C([C@H]1CCCN1)N1CC[C@]2(C1)C(=O)Nc1cc(Cl)c(Cl)cc12 [Compound 23, (S)-1′-(D-prolyl)-5,6-dichlorospiro[indoline-3,3′-pyrrolidin]-2-one]	< 3
CC(C)(O)C(=O)N1CC[C@]2(C1)C(=O)Nc1cc(Cl)c(Cl)cc12 [Compound 86, (S)-5,6-dichloro-1′-(2-hydroxy-2-methylpropanoyl)spiro[indoline-3,3′-pyrrolidin]-2-one]	< 3
C[C@H](O)CC(=O)N1CC[C@]2(C1)C(=O)Nc1cc(Cl)c(Cl)cc12 [Compound 88, (S)-5,6-dichloro-1′-((S)-3-hydroxybutanoyl)spiro[indoline-3,3′-pyrrolidin]-2-one]	< 3
O=C(CC1CNC1)N1CC[C@]2(C1)C(=O)Nc1cc(Cl)c(Cl)cc12 [Compound 26, (S)-1′-(2-(azetidin-3-yl)acetyl)-5,6-dichlorospiro[indoline-3,3′-pyrrolidin]-2-one]	< 1
O=C(Cc1cn[nH]c1)N1CC[C@]2(C1)C(=O)Nc1cc(Cl)c(Cl)cc12 [Compound 72, (S)-1′-(2-(1H-pyrazol-4-yl)acetyl)-5,6-dichlorospiro[indoline-3,3′-pyrrolidin]-2-one]	< 3
O=C(c1cnn(CCO)c1)N1CC[C@]2(C1)C(=O)Nc1cc(Cl)c(Cl)cc12 [Compound 78, (S)-5,6-dichloro-1′-(1-(2-hydroxyethyl)-1H-pyrazole-4-carbonyl)spiro[indoline-3,3′-pyrrolidin]-2-one]	< 10
O=C1Nc2cc(Cl)c(Cl)cc2[C@]12CCN(C(=O)[C@]13CNCC1C3)C2 (single isomer, unassigned; isomer 1) [Compound 32]	< 1
O=C(c1ccc(CO)nc1)N1CC[C@]2(C1)C(=O)Nc1cc(Cl)c(Cl)cc12 [Compound 68, (S)-5,6-dichloro-1′-(6-(hydroxymethyl)nicotinoyl)spiro[indoline-3,3′-pyrrolidin]-2-one]	< 3
O=C(C[C@@H]1CCCN1)N1CC[C@]2(C1)C(=O)Nc1cc(Cl)c(Cl)cc12 [Compound 61, (S)-5,6-dichloro-1′-(2-((S)-pyrrolidin-2-yl)acetyl)spiro[indoline-3,3′-pyrrolidin]-2-one]	< 1
Nc1ccc(C(=O)N2CC[C@]3(C2)C(=O)Nc2cc(Cl)c(Cl)cc23)cn1 [Compound 84, (S)-1′-(6-aminonicotinoyl)-5,6-dichlorospiro[indoline-3,3′-pyrrolidin]-2-one]	< 1
CNCC(=O)N1CC[C@]2(C1)C(=O)Nc1cc(Cl)c(Cl)cc12 [Compound 18, (S)-5,6-dichloro-1′-(methylglycyl)spiro[indoline-3,3′-pyrrolidin]-2-one]	< 3
N[C@@H](CO)C(=O)N1CC[C@]2(C1)C(=O)Nc1cc(Cl)c(Cl)cc12 [Compound 36, (S)-1′-(L-Seryl)-5,6-dichlorospiro[indoline-3,3′-pyrrolidin]-2-one]	< 1
O=C(C[C@H]1CCCN1)N1CC[C@]2(C1)C(=O)Nc1cc(Cl)c(Cl)cc12 [Compound 59, (S)-5,6-dichloro-1′-(2-((R)-pyrrolidin-2-yl)acetyl)spiro[indoline-3,3′-pyrrolidin]-2-one]	< 3
O=C(N1CC[C@]2(C1)C(=O)Nc1cc(Cl)c(Cl)cc12)C1(F)CCNCC1 [Compound 34, (S)-5,6-dichloro-1′-(4-fluoropiperidine-4-carbonyl)spiro[indoline-3,3′-pyrrolidin]-2-one]	< 1
NC[C@H](O)C(=O)N1CC[C@]2(C1)C(=O)Nc1cc(Cl)c(Cl)cc12 [Compound 54, (S)-1′-((S)-3-amino-2-hydroxypropanoyl)-5,6-dichlorospiro[indoline-3,3′-pyrrolidin]-2-one]	< 3
CC(C)[C@@H](N)C(=O)N1CC[C@]2(C1)C(=O)Nc1cc(Cl)c(Cl)cc12 [Compound 46, (S)-1′-(D-valyl)-5,6-dichlorospiro[indoline-3,3′-pyrrolidin]-2-one]	< 3

The next lines start with the values.

IC50 [µM]	Structure (SMILES)
< 3	C[C@@H](O)CC(=O)N1CC[C@]2(C1)C(=O)Nc1cc(Cl)c(Cl)cc12 [Compound 89, (S)-5,6-dichloro-1′-((R)-3-hydroxybutanoyl)spiro[indoline-3,3′-pyrrolidin]-2-one]
< 1	CS(=O)(=O)N1CC[C@]2(C1)C(=O)Nc1cc(Cl)c(Cl)cc12 [Compound 143]
< 1	O=C1Nc2cc(Cl)c(Cl)cc2[C@]12CCN(S(=O)(=O)CCO)C2 [Compound 138, (3S)-5,6-dichloro-1′-(2-hydroxyethanesulfonyl)-1H-spiro[indole-3,3′-pyrrolidin]-2-one]
< 1	O=C1Nc2cc(Cl)c(Cl)cc2[C@]12CCN(c1c[nH]c(=O)cn1)C2 [Compound 145, (S)-5,6-dichloro-1′-(5-oxo-4,5-dihydropyrazin-2-yl)spiro[indoline-3,3′-pyrrolidin]-2-one]
< 1	CC(=O)N1CC[C@]2(C1)C(=O)Nc1cc(Cl)c(Cl)cc12 [Compound 152, (S)-1′-acetyl-5,6-dichlorospiro[indoline-3,3′-pyrrolidin]-2-one]
< 10	Cc1cc2c(cc1Cl)[C@@]1(CCN(C(=O)CO)C1)C(=O)N2 [Compound 119, (R)-5-chloro-1′-(2-hydroxyacetyl)-6-methylspiro[indoline-3,3′-pyrrolidin]-2-one]
< 3	Nc1cc(N2CC[C@]3(C2)C(=O)Nc2cc(Cl)c(Cl)cc23)ncn1 [Compound 148, (S)-1′-(6-aminopyrimidin-4-yl)-5,6-dichlorospiro[indoline-3,3′-pyrrolidin]-2-one]
< 1	O=C(c1cc[nH]c1)N1CC[C@]2(C1)C(=O)Nc1cc(Cl)c(Cl)cc12 [Compound 135, (S)-5,6-dichloro-1′-(1H-pyrrole-3-carbonyl)spiro[indoline-3,3′-pyrrolidin]-2-one]
< 3	O=C([C@@H]1CC[C@@H](CO)C1)N1CC[C@]2(C1)C(=O)Nc1cc(Cl)c(Cl)cc12 (single isomer, unassigned; isomer 2) [Compound 100]
< 3	CC[C@H](O)C(=O)N1CC[C@]2(C1)C(=O)Nc1cc(Cl)c(Cl)cc12 [Compound 91, (S)-5,6-dichloro-1′-((S)-2-hydroxybutanoyl)spiro[indoline-3,3′-pyrrolidin]-2-one]
< 30	C[C@@H]1CN(C(=O)CO)CC12C(=O)Nc1cc(Cl)c(Cl)cc12 (single isomer, unassigned; diastereoisomer 1) [Compound 130, 5,6-dichloro-1′-(2-hydroxyacetyl)-4′-methylspiro[indoline-3,3′-pyrrolidin]-2-one diastereoisomer 1]
< 1	O=C(C1C[C@H](O)[C@@H](O)C1)N1CC[C@]2(C1)C(=O)Nc1cc(Cl)c(Cl)cc12 (relative stereo) [Compound 106]
< 10	CC[C@@H](O)C(=O)N1CC[C@]2(C1)C(=O)Nc1cc(Cl)c(Cl)cc12 [Compound 92, (S)-5,6-dichloro-1′-((R)-2-hydroxybutanoyl)spiro[indoline-3,3′-pyrrolidin]-2-one]
< 3	O=C1Nc2cc(Cl)c(Cl)cc2[C@]12CCN(c1cn[nH]n1)C2 [Compound 146, (S)-5,6-dichloro-1′-(1H-1,2,3-triazol-4-yl)spiro[indoline-3,3′-pyrrolidin]-2-one]
< 10	O=C(CO)N1CC[C@@]2(C1)C(=O)Nc1cc(Cl)c(Br)cc12 [Compound 117, (R)-5-bromo-6-chloro-1′-(2-hydroxyacetyl)spiro[indoline-3,3′-pyrrolidin]-2-one]
< 3	C[C@@H]1N(C(=O)CO)CCC12C(=O)Nc1cc(Cl)c(Cl)cc12 (single isomer, unassigned; diastereoisomer 1) [Compound 133, 5,6-dichloro-1′-(2-hydroxyacetyl)-2′-methylspiro[indoline-3,3′-pyrrolidin]-2-one diastereoisomer 1]
< 1	O=C([C@@H](O)CO)N1CC[C@]2(C1)C(=O)Nc1cc(Cl)c(Cl)cc12 [Compound 157, (S)-5,6-dichloro-1′-((S)-2,3-dihydroxypropanoyl)spiro[indoline-3,3′-pyrrolidin]-2-one]
< 1	Cc1c(Cl)cc2c(c1F)NC(=O)[C@@]21CCN(C(=O)CO)C1 [Compound 127, (S)-5-chloro-7-fluoro-1′-(2-hydroxyacetyl)-6-methylspiro[indoline-3,3′-pyrrolidin]-2-one]
